Experimental findings from PMC3434127, “Insights into Phosphate Cooperativity and Influence of Substrate Modifications on Binding and Catalysis of Hexameric Purine Nucleoside Phosphorylases” (PLoS ONE, 2012) are described below.

This test deals with T1, BsPNP233 (Bacillus subtilis, UniProt O34925).
T1 construct: gene deoD; full length, 233 residues, N-terminal His-tag kept (eight tag residues seen in one crystal form), recombinant from E. coli, homohexamer (D3); active site at dimer interface
T1 sequence (O34925 1-233): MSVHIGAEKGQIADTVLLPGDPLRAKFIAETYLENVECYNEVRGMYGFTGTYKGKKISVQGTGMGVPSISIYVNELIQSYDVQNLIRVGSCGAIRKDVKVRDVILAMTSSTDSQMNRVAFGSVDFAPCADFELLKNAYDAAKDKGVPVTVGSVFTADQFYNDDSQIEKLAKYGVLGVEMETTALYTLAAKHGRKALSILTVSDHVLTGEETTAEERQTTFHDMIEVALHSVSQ
Nature of the test: X-ray crystal structure (soaked crystal). It counts as binding.

Where [1] appears, read: crystals grown in 0.1 M sodium acetate pH 4.6, 3.2 M NaCl, 5% glycerol, 291 K, nucleoside site.

As for `Nc1nc2c(ncn2COCCO)c(=O)[nH]1` [ACV, aciclovir], under “crystals grown in 0.1 M sodium acetate pH 4.6, 3.2 M NaCl, 5% glycerol, 291 K, nucleoside site, two conformations of the acyclic chain, half-occupancy phosphate modelled”, the “X-ray crystal structure (soaked crystal)” value is “Aciclovir binds to the BsPNP233 nucleoside binding site”.
Turning to `Nc1ncnc2[nH]cnc12` [Ade, adenine], the “X-ray crystal structure (soaked crystal)” value (purine-binding site, solved without (4DAO) and with sulfate (form I, 4D8V)) is given as “The BsPNP233-Ade binary complex was solved with (BsPNP233-Ade-SO4) or without (BsPNP233-Ade) sulfate ion”.
In the case of `Nc1ncnc2c1ncn2[C@@H]1O[C@H](CO)[C@@H](O)[C@H]1O` [Ado, adenosine], the “X-ray crystal structure (soaked crystal)” value under setting [1] is “The base moiety of adenosine (Ado) binds to the BsPNP233 active site”.
Still for that read-out and setting: for `Nc1nc2c(nc(Br)n2[C@@H]2O[C@H](CO)[C@@H](O)[C@H]2O)c(=O)[nH]1` [Br-Guo, 8-bromoguanosine] the value was “The ribosyl moiety of Br-Guo presents a typical C4′–endo conformation and binds to the active site”; for `Nc1nc(Cl)c2ncn([C@@H]3O[C@H](CO)[C@@H](O)[C@H]3O)c2n1` [Cl-Guo, 6-chloroguanosine], “The molecule Cl-Guo displays a similar binding mode to that observed for dGuo”.
Still for that read-out and setting: as for `Nc1nc(F)nc2c1ncn2[C@@H]1O[C@H](CO)[C@@H](O)[C@H]1O` [F-Ado, 2-fluoradenosine], the entry is “The crystal structure of BsPNP233-(F-Ado) complex had two BsPNP233 subunits per asymmetric unit”.
The same measure, in the same setting: as for `Nc1nc2c(ncn2COC(CO)CO)c(=O)[nH]1` [GCV, ganciclovir], the entry is “GCV binds to the nucleoside binding site of BsPNP233”.
As for `O=c1[nH]cnc2nc[nH]c12` [Hyp, hypoxanthine], where the note is “crystals grown in 0.1 M sodium acetate pH 4.6, 3.2 M NaCl, 5% glycerol, 291 K, purine-binding site, glycerol in ribose site”, the “X-ray crystal structure (soaked crystal)” value is “crystal structures of BsPNP233 in complex with hypoxanthine (Hyp) and adenine (Ade)”.
Consider `Nc1ncnc2c1ccn2[C@@H]1O[C@H](CO)[C@@H](O)[C@H]1O` [TBN, tubercidin], for which, under setting [1], the “X-ray crystal structure (soaked crystal)” value is recorded as “TBN presented an interaction mode very similar to that seen for the natural substrate adenosine”.
